Assay results as given in patent US20110060013A1, “THIAZOLES AND PYRAZOLES USEFUL AS KINASE INHIBITORS” (VERTEX PHARMACEUTICALS INCORPORATED, priority 2007, published 2011).

Experiments:
Aurora-2 (Aurora A) = target: T1, Aurora-2 (Aurora A) (Homo sapiens, UniProt O14965); assay: Aurora-2 (Aurora A) inhibition, coupled enzyme assay; type: biochemical; conditions: 400 μM ATP, 570 μM Kemptide, 40 nM Aurora-2, 30° C.
T1 sequence (O14965 1-403): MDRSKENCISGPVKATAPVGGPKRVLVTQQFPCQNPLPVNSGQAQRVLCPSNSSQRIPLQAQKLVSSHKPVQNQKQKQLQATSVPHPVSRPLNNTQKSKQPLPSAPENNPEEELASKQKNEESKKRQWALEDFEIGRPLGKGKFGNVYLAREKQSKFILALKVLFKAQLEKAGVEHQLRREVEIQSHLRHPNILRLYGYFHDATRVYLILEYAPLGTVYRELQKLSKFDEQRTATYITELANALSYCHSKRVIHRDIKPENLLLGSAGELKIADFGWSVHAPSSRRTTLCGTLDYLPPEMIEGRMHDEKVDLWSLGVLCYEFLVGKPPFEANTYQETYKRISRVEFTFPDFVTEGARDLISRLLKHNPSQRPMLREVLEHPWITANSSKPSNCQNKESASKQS
Procedure: Compounds were screened for their ability to inhibit Aurora-2 using a standard coupled enzyme assay (Fox et al., Protein Sci., (1998) 7, 2249). Assays were carried out in a mixture of 100 mM Hepes (pH7.5), 10 mM MgCl2, 1 mM DTT, 25 mM NaCl, 2.5 mM phosphoenolpyruvate, 300 μM NADH, 30 μg/ml pyruvate kinase and 10 μg/ml lactate dehydrogenase. Final substrate concentrations in the assay were 400 μM ATP (Sigma Chemicals) and 570 μM peptide (Kemptide, American Peptide, Sunnyvale, Calif.). Assays were carried out at 30° C. and in the presence of 40 nM Aurora-2.
An assay stock buffer solution was prepared containing all of the reagents listed above, with the exception of Aurora-2 and the test compound of interest. 55 μl of the stock solution was placed in a 96 well plate followed by addition of 2 μl of DMSO stock containing serial dilutions of the test compound (typically starting from a final concentration of 7.5 μM). The plate was preincubated for 10 minutes at 30° C. and the reaction initiated by addition of 10 μl of Aurora-2. Initial reaction rates were determined with a Molecular Devices SpectraMax Plus plate reader over a 10 minute time course. IC50 and Ki data were calculated from non-linear regression analysis using the Prism software package (GraphPad Prism version 3.0cx for Macintosh, GraphPad Software, San Diego Calif., USA).

Aurora-1 (Aurora B) = Aurora-1 (Aurora B) (Homo sapiens, UniProt Q96GD4); assay: Aurora-1 (Aurora B) inhibition assay (radiometric); type: biochemical; conditions: 800 μM [γ-33P]-ATP, Kemptide, 25° C., 3 hours
Procedure: An assay buffer solution was prepared which consisted of 25 mM HEPES (pH 7.5), 10 mM MgCl2, 0.1% BSA and 10% glycerol. A 22 nM Aurora-B solution, also containing 1.7 mM DTT and 1.5 mM Kemptide (LRRASLG), was prepared in assay buffer. To 22 μL of the Aurora-B solution, in a 96-well plate, was added 2 μl of a compound stock solution in DMSO and the mixture allowed to equilibrate for 10 minutes at 25° C. The enzyme reaction was initiated by the addition of 16 μl stock [γ-^33P]-ATP solution (˜20 nCi/μL) prepared in assay buffer, to a final assay concentration of 800 μM. The reaction was stopped after 3 hours by the addition of 16 μL 500 mM phosphoric acid and the levels of ^33P incorporation into the peptide substrate were determined by the following method.
A phosphocellulose 96-well plate (Millipore, Cat no. MAPHNOB50) was pre-treated with 100 μL of a 100 mM phosphoric acid prior to the addition of the enzyme reaction mixture (40 μL). […] Levels of non-enzyme catalyzed background radioactivity were determined by adding 16 μL of the 500 mM phosphoric acid to control wells, containing all assay components (which acts to denature the enzyme), prior to the addition of the [γ-^33P]-ATP solution. Levels of enzyme catalyzed ^33P incorporation were calculated by subtracting mean background counts from those measured at each inhibitor concentration. […]

Sequence of Aurora-1 (Aurora B) (Q96GD4 whole entry): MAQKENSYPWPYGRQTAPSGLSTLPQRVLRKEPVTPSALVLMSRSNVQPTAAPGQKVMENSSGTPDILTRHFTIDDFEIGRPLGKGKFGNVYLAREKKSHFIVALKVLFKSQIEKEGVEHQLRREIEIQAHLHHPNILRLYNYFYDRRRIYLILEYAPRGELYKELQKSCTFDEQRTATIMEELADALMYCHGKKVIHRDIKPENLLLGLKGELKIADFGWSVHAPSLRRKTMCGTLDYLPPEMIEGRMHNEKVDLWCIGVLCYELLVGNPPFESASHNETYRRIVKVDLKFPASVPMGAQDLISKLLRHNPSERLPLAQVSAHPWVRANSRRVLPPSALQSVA

Ki (Aurora-2 (Aurora A)) [nM]	Ki (Aurora-1 (Aurora B)) [nM]	Structure (SMILES)
< 100	< 1000	Cc1cnc(Nc2cc(N3CC[C@H](F)C3)cc(Sc3ccc(NC(=O)C4CC4)cc3)n2)s1 [Compound 1, (S)-N-(4-(4-(3-Fluoropyrrolidin-1-yl)-6-(5-methylthiazol-2-ylamino)pyridin-2-ylthio)phenyl)cyclopropanecarboxamide]
< 100	< 1000	Cc1cc(Nc2cc(N3CC[C@H](F)C3)cc(Sc3ccc(NC(=O)C4CC4)cc3)n2)[nH]n1 [Compound 2, (S)-N-(4-(4-(3-Fluoropyrrolidin-1-yl)-6-(3-methyl-1H-pyrazol-5-ylamino)pyridin-2-ylthio)phenyl)cyclopropanecarboxamide]
